Results published in patent US20260174875A1 (Novo Nordisk A/S, priority 2023, published 2026).
Numbered stars: 1 amine (or outer) side, 2 acyl side, 3 side chain; on linkers, the order of the positions; unused ones are H or OH. Square brackets hold non-standard residues; d marks the D form. Side chains are listed from the residue outwards. * marks the point of attachment. C18 diacid = O=C(O)CCCCCCCCCCCCCCCCC(=O)*; γGlu = O=C(O)[C@H](CCC(=O)[*:2])N[*:1]; AEEA = NCCOCCOCC(=O)O; Aib = CC(C)(N)C(=O)O

Target: T1, human GIP receptor (hGIPR) (Homo sapiens, UniProt P48546)
T1 construct: expressed in transfected cells
T1 sequence (P48546 22-466): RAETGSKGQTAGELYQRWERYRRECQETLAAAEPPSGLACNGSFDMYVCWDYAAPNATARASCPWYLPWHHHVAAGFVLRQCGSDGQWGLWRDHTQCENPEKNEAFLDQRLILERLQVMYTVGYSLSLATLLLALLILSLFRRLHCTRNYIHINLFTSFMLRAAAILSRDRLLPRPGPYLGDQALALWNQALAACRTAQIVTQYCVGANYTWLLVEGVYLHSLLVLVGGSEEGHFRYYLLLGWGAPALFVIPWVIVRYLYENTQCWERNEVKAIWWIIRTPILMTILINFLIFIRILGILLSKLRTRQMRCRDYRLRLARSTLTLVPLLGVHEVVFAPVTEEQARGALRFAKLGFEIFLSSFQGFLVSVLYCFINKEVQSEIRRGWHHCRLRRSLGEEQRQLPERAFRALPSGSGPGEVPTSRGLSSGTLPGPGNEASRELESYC
Assay: GIP receptor assay, method A (CRE-luciferase reporter, BHK cells)
Assay type: cell-based
Details: hGIPR Potency, 1% HSA, EC50, method A, in the presence of 1% HSA
Summary of the method: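 BHK cells co-expressing hGIPR and a CRE-luciferase reporter were stimulated for 3 h at 37 °C with a 7-point, 10-fold compound titration in duplicate. Buffer was DMEM, 10 mM HEPES, 1% ovalbumin, 0.1% Pluronic F-68, without HSA or with 1% (w/v) HSA. EC50 [pM] came from four-parameter logistic fits of luminescence.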

| Substance | EC50 [pM] |
| --- | --- |
| H[Aib]HGTFTSDYSILLEEQAAREFIEWLLAGGPSRGEASHLSTAQTQRLSAELHK([AEEA-AEEA-γGlu-C18 diacid])LATLPRTETGSGSP-NH2 [Compound 69] | 8.05 |
| H[Aib]HGTFTSDYSILLEEQAAREFIEWLLAGGPSSGAGQAPGQAPGASHLSTAQTQRLSAELHRLK([AEEA-AEEA-γGlu-C18 diacid])TLPRTETGSGSP-NH2 [Compound 91] | 9.31 |
| H[Aib]HGTFTSDYSILLEEQAAREFIEWLLAGGPSSGAGQAPGQAPGASHLSTAQTQRLSAK([AEEA-AEEA-γGlu-C18 diacid])LHRLATLPRTETGSGSP-NH2 [Compound 78] | 10.4 |
| H[Aib]HGTFTSDYSILLEEQAAREFIEWLLAGGPSSGAGQAPGQAPLASHLSTAQTQRLSAELHK([AEEA-AEEA-γGlu-C18 diacid])LATLPRTETGSGSP-NH2 [Compound 93] | 8.58 |
| H[Aib]HGTFTSDYSILLEEQAAREFIEWLLAGGPSSGEASHLSTAALGRLSAELHRLK([AEEA-AEEA-γGlu-C18 diacid])TLPRTETGSGSP-NH2 [Compound 89] | 30.6 |

Same assay, conditions: method A, absence of HSA; read-out: hGIPR Potency, no HSA, EC50

| Substance | EC50 [pM] |
| --- | --- |
| H[Aib]HGTFTSDYSILLEEQAAREFIEWLLAGGPSRGEASHLSTAQTQRLSAELHK([AEEA-AEEA-γGlu-C18 diacid])LATLPRTETGSGSP-NH2 [Compound 69] | 1.9 |
| H[Aib]HGTFTSDYSILLEEQAAREFIEWLLAGGPSSGAGQAPGQAPGASHLSTAQTQRLSAELHRLK([AEEA-AEEA-γGlu-C18 diacid])TLPRTETGSGSP-NH2 [Compound 91] | 3.21 |
| H[Aib]HGTFTSDYSILLEEQAAREFIEWLLAGGPSSGAGQAPGQAPGASHLSTAQTQRLSAK([AEEA-AEEA-γGlu-C18 diacid])LHRLATLPRTETGSGSP-NH2 [Compound 78] | 3.49 |
| H[Aib]HGTFTSDYSILLEEQAAREFIEWLLAGGPSSGAGQAPGQAPLASHLSTAQTQRLSAELHK([AEEA-AEEA-γGlu-C18 diacid])LATLPRTETGSGSP-NH2 [Compound 93] | 2.54 |
| H[Aib]HGTFTSDYSILLEEQAAREFIEWLLAGGPSSGEASHLSTAALGRLSAELHRLK([AEEA-AEEA-γGlu-C18 diacid])TLPRTETGSGSP-NH2 [Compound 89] | 6.47 |

System: Male Sprague Dawley (SD) rats
Assay: Efficacy testing on appetite: acute food intake in ad libitum fed normal weight rats
Assay type: in vivo, rat
Details: single dose 10 nmol/kg, day 1 [0-24 hours]
Text: Male Sprague Dawley (SD) rats from Taconic, Denmark were used for the acute food intake experiments, wherein the principles of laboratory animal care were followed.
The rats arrived at least 10-14 days before the start of the experiment to allow acclimatization to experimental settings. During this period, the animals were handled (fixation by restrain in neck skin) at least 2 times. Immediately upon arrival, rats were changed to a reversed light cycle (dark from 11 am-11 pm) and were transferred to an automated food intake measuring system (HM2 system, MBRose; Faaborg, Denmark). […] To enable recording of individual food intake, rats were ID chipped. Three rats were housed in each cage. During the acclimatization period, in which the rats get used to the new light cycle and diet (LF 10% (D12450B), from Research Diets Inc.), the animals had free access to food and water. Since rats are normally active and consume most of their daily calories during the dark period, rats were dosed in the morning right before lights were turned off. Such a set-up results in the lowest data variation and highest test sensitivity. […] In each cage there were animals from three different treatment groups (to eliminate potential cage effects (e.g. cage malfunction) on primary readout: food intake). The rats were dosed once subcutaneously (s.c.) with the peptide of interest according to body weight (10 or 30 nmol/kg) in vehicle (0.5 ml/kg) using a NovoPen® (Novo Nordisk, Bagsvæed, Denmark).
The compounds of the invention were formulated (20 or 60 nmol/ml) in the following vehicle: 8 mM phosphate; 250 mM glycerol; 0.007% polysorbate 20, pH 7.4.
After dosing, the rats were returned to their home cages, where they continued to have ad libitum access to chow and water. The food consumption was recorded individually and continuously by the HM2 system from 0-72 h after test compound administration. Data obtained by the HM-2 system were stored in a HMBase SQL database (Firebird® relational database management system) and were processed by HM2Lab software (MBRose; Faaborg, Denmark) installed in an embedded computer. The feeding system is a highly sensitive system with a load resolution of 0.001 g.

| Substance | Food intake (relative to vehicle) Day 1 [%] |
| --- | --- |
| H[Aib]HGTFTSDYSILLEEQAAREFIEWLLAGGPSRGEASHLSTAQTQRLSAELHK([AEEA-AEEA-γGlu-C18 diacid])LATLPRTETGSGSP-NH2 [Compound 69] | −81 |
| H[Aib]HGTFTSDYSILLEEQAAREFIEWLLAGGPSSGAGQAPGQAPGASHLSTAQTQRLSAELHRLK([AEEA-AEEA-γGlu-C18 diacid])TLPRTETGSGSP-NH2 [Compound 91] | −96 |
| H[Aib]HGTFTSDYSILLEEQAAREFIEWLLAGGPSSGAGQAPGQAPGASHLSTAQTQRLSAK([AEEA-AEEA-γGlu-C18 diacid])LHRLATLPRTETGSGSP-NH2 [Compound 78] | −96 |
| H[Aib]HGTFTSDYSILLEEQAAREFIEWLLAGGPSSGAGQAPGQAPLASHLSTAQTQRLSAELHK([AEEA-AEEA-γGlu-C18 diacid])LATLPRTETGSGSP-NH2 [Compound 93] | −94 |
| H[Aib]HGTFTSDYSILLEEQAAREFIEWLLAGGPSSGEASHLSTAALGRLSAELHRLK([AEEA-AEEA-γGlu-C18 diacid])TLPRTETGSGSP-NH2 [Compound 89] | −93 |

Same assay, conditions: single dose 10 nmol/kg, day 2 [24-48 hours]

| Substance | Food intake (relative to vehicle) Day 2 [%] |
| --- | --- |
| H[Aib]HGTFTSDYSILLEEQAAREFIEWLLAGGPSRGEASHLSTAQTQRLSAELHK([AEEA-AEEA-γGlu-C18 diacid])LATLPRTETGSGSP-NH2 [Compound 69] | −68 |
| H[Aib]HGTFTSDYSILLEEQAAREFIEWLLAGGPSSGAGQAPGQAPGASHLSTAQTQRLSAELHRLK([AEEA-AEEA-γGlu-C18 diacid])TLPRTETGSGSP-NH2 [Compound 91] | −84 |
| H[Aib]HGTFTSDYSILLEEQAAREFIEWLLAGGPSSGAGQAPGQAPGASHLSTAQTQRLSAK([AEEA-AEEA-γGlu-C18 diacid])LHRLATLPRTETGSGSP-NH2 [Compound 78] | −57 |
| H[Aib]HGTFTSDYSILLEEQAAREFIEWLLAGGPSSGAGQAPGQAPLASHLSTAQTQRLSAELHK([AEEA-AEEA-γGlu-C18 diacid])LATLPRTETGSGSP-NH2 [Compound 93] | −61 |
| H[Aib]HGTFTSDYSILLEEQAAREFIEWLLAGGPSSGEASHLSTAALGRLSAELHRLK([AEEA-AEEA-γGlu-C18 diacid])TLPRTETGSGSP-NH2 [Compound 89] | −78 |

Same assay, conditions: single dose 10 nmol/kg, day 3 [48-72 hours]

| Substance | Food intake (relative to vehicle) Day 3 [%] |
| --- | --- |
| H[Aib]HGTFTSDYSILLEEQAAREFIEWLLAGGPSRGEASHLSTAQTQRLSAELHK([AEEA-AEEA-γGlu-C18 diacid])LATLPRTETGSGSP-NH2 [Compound 69] | −6 |
| H[Aib]HGTFTSDYSILLEEQAAREFIEWLLAGGPSSGAGQAPGQAPGASHLSTAQTQRLSAELHRLK([AEEA-AEEA-γGlu-C18 diacid])TLPRTETGSGSP-NH2 [Compound 91] | −33 |
| H[Aib]HGTFTSDYSILLEEQAAREFIEWLLAGGPSSGAGQAPGQAPGASHLSTAQTQRLSAK([AEEA-AEEA-γGlu-C18 diacid])LHRLATLPRTETGSGSP-NH2 [Compound 78] | −3 |
| H[Aib]HGTFTSDYSILLEEQAAREFIEWLLAGGPSSGAGQAPGQAPLASHLSTAQTQRLSAELHK([AEEA-AEEA-γGlu-C18 diacid])LATLPRTETGSGSP-NH2 [Compound 93] | −25 |
| H[Aib]HGTFTSDYSILLEEQAAREFIEWLLAGGPSSGEASHLSTAALGRLSAELHRLK([AEEA-AEEA-γGlu-C18 diacid])TLPRTETGSGSP-NH2 [Compound 89] | −28 |
